Measured values: patent US4460503A, “Tuberculine active peptides and a process for preparing same by chemical synthesis” (priority 1983, dated 1984)
Where a SMILES comes first, the peptide text is derived from it. Where no end group is shown, it is not given here.

Tests used:
[1] = system: guinea pigs sensitized with heat-killed M. bovis BCG-Pasteur; experiment: Tuberculin skin test in BCG-sensitized guinea pigs; format: in vivo; conditions: for skin reaction: 200 μg dose in 100 μl PBS intradermally; for skin reaction / color intensity of skin reaction: after 24 h; for color intensity of skin reaction: 200 μg dose intradermally; for enduration: 200 μg peptide intradermally
Procedure: (§1) The tuberculin tests were carried out on guinea pigs sensitized 6 weeks before with heat-killed Mycobacterium tuberculosis strain Peurois or M. bovis BCG-Pasteur.
(§2) Doses of 200 μg of the octopeptide of formula (I) or of the hexadecapeptide of formula (II) in 100 µl of PBS buffer containing Tween 80, were administered intradermally in the ventral side of guinea pigs sensitized as mentioned above.
(§3) The appearance of a delayed-type tuberculin reaction was observed 24 h and 48 h after the injection.

[2] = system: anti-octapeptide antiserum; format: binding, Rabbits
[3] = system: guinea pigs sensitized with heat-killed Mycobacterium tuberculosis strain Peurois; experiment: Tuberculin skin test in M. tuberculosis strain Peurois-sensitized guinea pigs; conditions: 200 μg dose, after 24 h
Procedure: as §1, §2, §3

[4] = peptides obtained after enzymatic digestion of the tuberculin-active protein; cited from earlier work
BCG-infected mice = conditions: cited from earlier work
[5] = system: Mycobacterium tuberculosis-sensitized guinea pigs; conditions: cited from earlier work

With `N[C@@H](CC(=O)O)C(=O)NCC(=O)NCC(=O)N[C@@H](CO)C(=O)N[C@@H](CCC(=O)O)C(=O)N[C@@H](CO)C(=O)N[C@@H](CCC(=O)O)C(=O)NCC(=O)O` [octapeptide of formula (I), Asp-Gly-Gly-Ser-Glu-Ser-Glu-Gly] (H-DGGSESEG-OH) the skin reaction [1] was 4 mm, the “color intensity of skin reaction” value [1] was “low color intensity” and the enduration [1] was “little or no enduration”. For the same compound, the “amount required to displace half of the label in radioimmunoassays” value [2] was 250 pg.

In the case of “DGGSESEGKNGSQMRL [hexadecapeptide of formula (II)]”, the skin reaction [1] is reported as 8 mm, the “color intensity of skin reaction” value [1] is reported as “low color intensity” and the enduration [1] is reported as “little or no enduration”. For the same compound, the “amount required to displace half of the label in radioimmunoassays” value [2] was 500000 pg, the “level of recognition relative to octapeptide of formula (I)” value ([2]; taking into account the molecular weight) was 0.1% and the “enduration (average)” value [3] was 12 mm. For the same compound, the “erythematous area, diameter (average)” value [3] was 11 mm.

For NGSQMR [hexapeptide 70-75], the “tuberculin activity in skin tests” value [4] is given as “residual tuberculin activity”.

For DGGSESEGK [nonapeptide 61-69], the “tuberculin activity in skin tests” value [4] is given as “residual tuberculin activity”.

In the case of NGSQMRL [synthetic heptapeptide], the tuberculin activity (BCG-infected mice) is listed as “devoid of any tuberculin activity” and the “tuberculin activity in skin tests” value [5] is listed as “devoid of any tuberculin activity”.
